Measured values reported in US20090118135A1, “METHODS AND COMPOUNDS FOR REGULATING APOPTOSIS” (The Burnham Institute, priority 2007, published 2009).
Read-outs that look alike come from different tables or passages of the source.

Target: T1, GST-Bcl-B (Homo sapiens, UniProt Q9HD36)
T1 sequence (Q9HD36 1-182 limits assumed): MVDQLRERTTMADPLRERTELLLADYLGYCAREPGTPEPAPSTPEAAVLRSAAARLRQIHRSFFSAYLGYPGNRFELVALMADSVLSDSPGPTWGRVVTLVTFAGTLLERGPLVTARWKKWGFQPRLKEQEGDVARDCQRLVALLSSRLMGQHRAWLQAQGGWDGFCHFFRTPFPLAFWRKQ
Test: Bcl-B/FITC-TR3-r8 fluorescence polarization competition (displacement) assay, HTS and dose-response

[1] = Table 7, NCI Mechanistic library, Binding Assay, FP, Concentration 0.02 uM
[2] = read-out: Result Value (Result Type % Inhibition), BCL-b/TR3
[3] = Table 8, NCI Structural library, Binding Assay, FP, Concentration 0.02 uM
[4] = read-out: Result Value (Result Type % Inhibition), BCL-b/TR3, Table 8, NCI Structural library, Binding Assay, FP, Concentration 0.02 uM
[5] = read-out: Result Value (Result Type % Inhibition), BCL-b/TR3, Table 7, NCI Mechanistic library, Binding Assay, FP, Concentration 0.02 uM

| SMILES | inhibition at 0.02 µM [2] [%] | F Ratio [3] | Is Hit [3] | F Ratio [1] | Is Hit [1] | inhibition at 0.02 µM [4] [%] | inhibition at 0.02 µM [5] [%] | Result Value (Result Type % Inhibition), BCL-b/TR3 [1] [%] |
| --- | --- | --- | --- | --- | --- | --- | --- | --- |
| C[n+]1c(/C=C/c2ccc(O)c3ncccc23)[se]c2ccccc21 [Compound 86374] |  | 0.09444 | Yes |  |  | 61.4 |  |  |
| O=S(=O)(O)c1ccc2cc(/N=N/c3cc(S(=O)(=O)O)c4cccnc4c3O)ccc2c1 [Compound 87677] | 66.1 | 0.3822 | Yes |  |  |  |  |  |
| C[C@]12CC[C@H]3[C@@H](CCC4=CC(=O)CC[C@@]43C)[C@@H]1CC[C@@H]2C(=O)COS(=O)(=O)c1ccc(Br)cc1 [Compound 88915] | 61.4 | 0.2647 | Yes |  |  |  |  |  |
| Oc1ccc(Cc2nccc3cc(O)c(O)cc23)cc1O [Compound 99799] | 77.4 | 0.09369 | Yes |  |  |  |  |  |
| O=C1OC(c2ccccc2)=N/C1=C\c1ccc(N(CCCl)CCCl)cc1 [Compound 104117] | 62.8 |  |  | 1.2733 | Yes |  |  |  |
| COC(=O)c1ccc(O)c2nc3c(C=O)c(O)cc(O)c3nc12 [Compound 106995] | 98.9 |  |  | 0.08027 | Yes |  |  |  |
| COc1cc(-c2[o+]c3cc(O)cc(O)c3cc2O)cc(O)c1O.O=C(O)c1ccccc1 [Compound 114885] |  | 0.08249 | Yes |  |  | 108 |  |  |
| Nc1nc(N)c(/N=N/c2ccc(C(=O)O)c(O)c2)c(N)n1 [Compound 117285] | 59.9 | 0.2954 | Yes |  |  |  |  |  |
| O=C(O)C1CCCCC1c1c2ccc(=O)c(O)c-2oc2c(O)c(O)ccc12 (centres unmarked) [Compound 119910] | 119 | 0.1582 | Yes |  |  |  |  |  |
| CC1C2C=CC1C(c1c3ccc(=O)c(O)c-3oc3c(O)c(O)ccc13)C2C(=O)O (centres unmarked) [Compound 119913] | 131 | 0.0972 | Yes |  |  |  |  |  |
| O=C(O)CCc1c2ccc(=O)c(O)c-2oc2c(O)c(O)ccc12 [Compound 119915] | 158 | 0.5317 | Yes |  |  |  |  |  |
| O=C(O)c1cnc2c(ccc3ncc(C(=O)O)c(O)c32)c1O [Compound 128884] | 55.3 | 0.205 | Yes |  |  |  |  |  |
| O=[N+]([O-])c1cc(Cc2cc([N+](=O)[O-])c3cccnc3c2O)c(O)c2ncccc12 [Compound 130798] |  | 0.1969 | Yes |  |  | 115 |  |  |
| Oc1cc(O)c2c(c1)OC(c1ccc(O)c(O)c1)C(O)C2c1c(O)cc(O)c2c1OC(c1ccc(O)c(O)c1)C(O)C2 (centres unmarked) [Compound 143099] | 84.6 | 0.1606 | Yes |  |  |  |  |  |
| Oc1cc(O)c2c(c1)OC(c1ccc(O)c(O)c1)C(OC1(c3cc(O)c(O)c(O)c3)Oc3cc(O)cc(O)c3C(O)C1O)C2 (centres unmarked) [Compound 143101] | 82.8 | 0.1869 | Yes |  |  |  |  |  |
| COC1/C2=C(\O)C3(C)Oc4c5c(O)c6c(O)c(c(CN(C)C)c(O)c6c4C3=O)NC(=O)/C(C)=C\C=C/CC(O)C(C)C(O5)C(C)C(OC2=O)C1C (centres unmarked) [Compound 145612] | 54 | 0.9609 | Yes |  |  |  |  |  |
| CN1CC=C(Nc2ccc(C(=O)Nc3ccc(Nc4ccncc4)cc3)c([N+](=O)[O-])c2)c2cc([N+](=O)[O-])ccc21 [Compound 218439] |  |  |  | 0.07485 | Yes |  | 106 |  |
| c1ccc2c(NCCCCCCCCNc3c4ccccc4nc4ccccc34)c3ccccc3nc2c1 [Compound 219734] |  |  |  | 0.2008 | Yes |  |  | 53.437 |
| NC(=O)OCC1=C(COC(N)=O)C(=O)c2c(O)ccc(O)c2C1=O [Compound 224124] | 145 |  |  | 1.1456 | Yes |  |  |  |
| COc1cccc2c1C(=N)c1c(O)c3c(c(O)c1C2=O)C[C@@](O)(C(C)=O)C[C@@H]3OC1CC(N)C(O)C(C)O1 (some centres unmarked) [Compound 254681] | 138 | 0.5232 | Yes |  |  |  |  |  |
| CC[n+]1c(-c2ccccc2)c2cc(N)ccc2c2ccc(N)cc21 [Compound 268986] |  |  |  | 0.3849 | Yes |  | 149 |  |
| CN(C)CCN1C(=O)c2cccc3cc(N)cc(c23)C1=O [Compound 308847] |  |  |  | 0.6345 | Yes |  | 87.6 |  |
| CC(=O)O.CCN(CC)CC[n+]1ccc2c(C)c3[nH]c4ccc(O)cc4c3c(C)c2c1 [Compound 311152] | 128 | 0.7711 | Yes |  |  |  |  |  |
| CC(=O)O.Cc1c2cc[n+](CCN3CCCCC3)cc2c(C)c2c1[nH]c1ccc(O)cc12 [Compound 311153] |  | 0.3973 | Yes | 0.275 | Yes | 128 | 120 |  |
| Nc1ccc2c(c1)CN1C(=O)c3ccccc3C1=N2 [Compound 320846] |  |  |  | 1.4904 | Yes |  | 60.7 |  |
| CN1CCN(c2ccc3nc(-c4ccc5[nH]c(-c6ccc(O)cc6)nc5c4)[nH]c3c2)CC1 [Compound 322921] |  |  |  |  |  | 71.6 |  |  |
| O=C1C(Cl)=C(Sc2nnc3c4ccccc4c4ccccc4c3n2)C(=O)c2ccccc21 [Compound 327705] |  | 0.2306 | Yes |  |  | 56.3 |  |  |
| Nc1nc(Sc2ccc([N+](=O)[O-])c3nonc23)c2nc[nH]c2n1 [Compound 348401] | 68.6 | 1.4788 | Yes |  |  |  |  |  |

Continued, in another order:

| inhibition at 0.02 µM [2] [%] | F Ratio [3] | Is Hit [3] | SMILES | F Ratio [1] | Is Hit [1] | inhibition at 0.02 µM [4] [%] | inhibition at 0.02 µM [5] [%] | Result Value (Result Type % Inhibition), BCL-b/TR3 [1] [%] |
| --- | --- | --- | --- | --- | --- | --- | --- | --- |
| 125 |  |  | O=[N+]([O-])c1ccc2c(/N=N/c3c(O)ccc4ccccc34)c(O)cc(S(=O)(=O)O)c2c1 [Compound 73413] | 0.05947 | Yes |  |  |  |
| 141 |  |  | O=[N+]([O-])c1cccc2c(/N=N/c3ccc4ccccc4c3O)c(O)cc(S(=O)(=O)O)c12 [Compound 85561] | 0.06489 | Yes |  |  |  |
| 78.6 |  |  | Cc1cc(C(=C2C=CC(=N)C=C2)c2ccc(N)cc2)ccc1N [Compound 93739] |  |  |  |  |  |
| 163 | 0.4053 | Yes | Nc1c(S(=O)(=O)O)cc(Nc2cccc(S(N)(=O)=O)c2)c2c1C(=O)c1ccccc1C2=O [Compound 117079] |  |  |  |  |  |
| 50.3 | 0.9351 | Yes | CN(C)S(=O)(=O)c1ccc(Nc2ccc(O)c3c2C(=O)c2c([N+](=O)[O-])ccc(O)c2C3=O)cc1 [Compound 117949] |  |  |  |  |  |
| 62.3 | 0.5128 | Yes | N=C1C(O)C2(I)c3ccccc3N3C(=N)C(O)C4c5ccccc5N1C4C32 (centres unmarked) [Compound 118176] |  |  |  |  |  |
| 123 | 0.07992 | Yes | O=C(O)/C=C/c1c2ccc(=O)c(O)c-2oc2c(O)c(O)ccc12 [Compound 119911] |  |  |  |  |  |
| 124 | 0.2215 | Yes | O=C(O)c1cccc(/N=N/c2c(S(=O)(=O)O)ccc3c2C(=O)c2ccccc2C3=O)c1O [Compound 125908] |  |  |  |  |  |
| 123 | 0.2439 | Yes | Nc1ccc(-c2ccc(Nc3cc(S(=O)(=O)O)c(N)c4c3C(=O)c3ccccc3C4=O)cc2)c(S(=O)(=O)O)c1 [Compound 125910] |  |  |  |  |  |
| 166 | 0.9929 | Yes | CNc1ccc(Nc2ccc(S(=O)(=O)O)cc2)c2c1C(=O)c1ccccc1C2=O [Compound 128437] |  |  |  |  |  |
| 133 | 0.07696 | Yes | COc1ccc2nc3cc(Cl)ccc3c(Nc3ccc(O)c(CN4CCN(C)CC4)c3)c2c1.Cl [Compound 130813] |  |  |  |  |  |
| 102 | 0.07045 | Yes | O=S(=O)(O)c1cc(/N=N/c2cccc3ccccc23)c(O)c2ncccc12 [Compound 148354] |  |  |  |  |  |
| 58.6 | 0.1208 | Yes | CS(=O)(=O)Nc1ccc(Nc2c3ccccc3nc3ccccc23)cc1 [Compound 156305] |  |  |  |  |  |
| 123 | 0.1552 | Yes | CCc1c(O)c2c(c(O)c1C(C)=O)C(=O)c1c(cc(O)c(C(=O)O)c1C(=O)O)C2=O [Compound 170005] |  |  |  |  |  |
| 51.9 |  |  | N=C(N)NCCCS(=O)(=O)Nc1ccc(Nc2c3ccccc3nc3cc([N+](=O)[O-])ccc23)cc1 [Compound 177365] | 0.439 | Yes |  |  |  |
| 73.4 | 1.1364 | Yes | O=[N+]([O-])c1ccc(S(=O)(=O)Cc2ccccc2)c2nonc12 [Compound 228148] |  |  |  |  |  |
| 53.3 |  |  | COc1ccc2c(NCCCCCCNc3c4ccccc4nc4cc(OC)ccc34)c3ccccc3nc2c1 [Compound 260610] | 0.269 | Yes |  |  |  |
| 154 | 0.08966 | Yes | Cc1nn(-c2ccc(S(=O)(=O)O)cc2)c(O)c1/N=N/c1ccc(-c2ccc(/N=N/c3ccc4c(S(=O)(=O)O)cc(S(=O)(=O)O)c(N)c4c3O)c(O)c2)cc1O [Compound 306711] |  |  |  |  |  |
| 110 | 0.1416 | Yes | CN(C)CCCNc1cc(O)c2c(c1O)C(=O)c1ccccc1C2=O [Compound 339585] |  |  |  |  |  |
